Measurements reported in patent US10765662B2, “Mono- or di-substituted indole derivatives as dengue viral replication inhibitors” (Janssen Pharmaceuticals, Inc., priority 2015, dated 2020).

Tests used:
DENV-3 strain H87 = assay: Tetravalent RT-qPCR assay Protocol A, serotype 3; type: cell-based; settings: Dengue virus, DENV3, 72 h; RT-qPCR serotype 3 H87, Vero cells, day 3
Method: (§1) The antiviral activity of the compounds of the invention was tested against DENV-1 strain TC974#666 (NCPV), DENV-2 strain 16681, DENV-3 strain H87 (NCPV) and DENV-4 strains H241 (NCPV) and EDEN (SG/06K2270DK1/2005; GenBank accession number QG398256) in a RT-qPCR assay. Therefore, Vero cells were infected with either DENV-1, or -2, or -3, or -4 in the presence or absence of test compounds. At day 3 post-infection, the cells were lysed and cell lysates were used to prepare cDNA of both a viral target (the 3′UTR of DENV; Table 2) and a cellular reference gene (β-actin, Table 2). Subsequently, a duplex real time PCR was performed on a Lightcycler480 instrument. The generated Cp value is inversely proportional to the amount of RNA expression of these targets. Inhibition of DENV replication by a test compound results in a shift of Cp's for the 3′UTR gene. On the other hand, if a test compound is toxic to the cells, a similar effect on β-actin expression will be observed. The comparative ΔΔCp method is used to calculate EC50, which is based on the relative gene expression of the target gene (3′UTR) normalized with the cellular housekeeping gene (β-actin). In addition, CC50 values are determined based on the Cp values acquired for the housekeeping gene β-actin.
(§2) The culture medium consisted of minimal essential medium supplemented with 2% of heat-inactivated fetal calf serum, 0.04% gentamycin (50 mg/mL) and 2 mM of L-glutamine. Vero cells, obtained from ECACC, were suspended in culture medium and 75 μL/well was added in 96-well plates (10000 cells/well), which already contain the antiviral compounds. […] In addition, each plate contains wells which are assigned as virus controls (containing cells and virus in the absence of compound) and cell controls (containing cells in the absence of virus and compound). Once the cells were added in the plates, the plates were incubated in a fully humidified incubator (37° C., 5% CO2) until the next day. Dengue viruses serotype-1, 2, 3 and 4 were diluted in order to obtain a Cp of ˜22-24 in the assay. Therefore, 25 μL of virus suspension, was added to all the wells containing test compound and to the wells assigned as virus control. In parallel, 25 μL of culture medium was added to the cell controls. Next, the plates were incubated for 3 days in a fully humidified incubator (37° C., 5% CO2). After 3 days, the supernatant was removed from the wells and the cells were washed twice with ice-cold PBS (˜100 μL). The cell pellets within the 96-well plates were stored at −80° C. for at least 1 day. Next, RNA was extracted using the Cells-to-CT™ lysis kit, according to the manufacturer's guideline (Life Technologies). The cell lysates can be stored at −80° C. or immediately used in the reverse transcription step.
(§3) In preparation of the reverse transcription step, mix A (table 3A) was prepared and 7.57 μL/well was dispensed in a 96-well plate. After addition of 5 μL of the cell lysates, a five minute denaturation step at 75° C. was performed (table 3B). Afterwards, 7.43 μL of mix B was added (table 3C) and the reverse transcription step was initiated (table 3D) to generate cDNA.
(§4) Finally, a RT-qPCR mix was prepared, mix C (table 4A), and 22.02 μL/well was dispensed in 96-well LightCycler qPCR plates to which 3 μL of cDNA was added and the qPCR was performed according to the conditions in table 4B on a LightCycler 480.
(§5) Using the LightCycler software and an in-house LIMS system, dose response curves for each compound were calculated and the half maximal effective concentration (EC50) and the half maximal cytotoxic concentration (CC50) were determined (Tables 5-8).

in vitro [1] = type: cell-based; settings: African green monkey
Method: as §1, §2, §5

[2] = system: DENV-2 16681 strain labeled with enhanced green fluorescent protein; assay: DENV-2 antiviral assay (eGFP fluorescence read-out in Vero cells); type: cell-based, Dengue virus; settings: DENV-2 16681 eGFP, MOI 0.5, 3 days
Method: The antiviral activity of all the compounds of the invention was tested against the DENV-2 16681 strain which was labeled with enhanced green fluorescent protein (eGPF). The culture medium consists of minimal essential medium supplemented with 2% of heat-inactivated fetal calf serum, 0.04% gentamycin (50 mg/mL) and 2 mM of L-glutamine. Vero cells, obtained from ECACC, were suspended in culture medium and 25 μL was added to 384-well plates (2500 cells/well), which already contain the antiviral compounds. Typically, these plates contain a 5-fold serial dilution of 9 dilution steps of the test compound at 200 times the final concentration in 100% DMSO (200 nL). […] Finally, each plate contains wells which are assigned as virus controls (containing cells and virus in the absence of compound), cell controls (containing cells in the absence of virus and compound) and medium controls (containing medium in the absence of cells, virus and compounds). To the wells assigned as medium control, 25 μL of culture medium was added instead of Vero cells. Once the cells were added to the plates, the plates were incubated for 30 minutes at room temperature to allow the cells to distribute evenly within the wells. Next, the plates were incubated in a fully humidified incubator (37° C., 5% CO2) until the next day. Then, DENV-2 strain 16681, labeled with eGFP, was added at a multiplicity of infection (MOI) of 0.5. Therefore, 15 μL of virus suspension was added to all the wells containing test compound and to the wells assigned as virus control. In parallel, 15 μL of culture medium was added to the medium and cell controls. Next, the plates were incubated for 3 days in a fully humidified incubator (37° C., 5% CO2). At the day of the read out, the eGFP fluorescence was measured using an automated fluorescence microscope at 488 nm (blue laser). Using an in-house LIMS system, inhibition dose response curves for each compound were calculated and the half maximal effective concentration (EC50) was determined. Therefore, the percent inhibition (I) for every test concentration is calculated using the following formula: I=100*([…])/(SVC−SCC); ST, SCC and SVC are the amount of eGFP signal in the test compound, cell control and virus control wells, respectively. The EC50 represents the concentration of a compound at which the virus replication is inhibited with 50%, as measured by a 50% reduction of the eGFP fluorescent intensity compared to the virus control. The EC50 is calculated using linear interpolation (Table 1).

Vero cells = assay: in vitro; type: cell-based; settings: African green monkey
Method: (§6) In parallel, the toxicity of the compounds was assessed on the same plates. Once the read-out for the eGFP signal was done, 40 μL of ATPlite, a cell viability stain, was added to all wells of the 384-well plates. ATP is present in all metabolically active cells and the concentration declines very rapidly when the cells undergo necrosis or apoptosis. The ATPLite assay system is based on the production of light caused by the reaction of ATP with added luciferase and D-luciferin. The plates were incubated for 10 minutes at room temperature. Next, the plates were measured on a ViewLux. The half maximal cytotoxic concentration (CC50) was also determined, defined as the concentration required to reduce the luminescent signal by 50% compared to that of the cell control wells. Finally, the selectivity index (SI) was determined for the compounds, which was calculated as followed: SI=CC50/EC50.

DENV-4 strain H241 = assay: Tetravalent RT-qPCR assay Protocol A, serotype 4 H241; type: cell-based; settings: Dengue virus, DENV4, Vero, 72 h
Method: as §1, §2, §3, §4, §5

DENV-2 strain 16681 = assay: Tetravalent RT-qPCR assay Protocol A, serotype 2; type: cell-based; settings: Dengue virus, DENV2, 72 h; RT-qPCR serotype 2 16681, Vero cells, day 3
Method: as §1, §2, §3, §4, §5

DENV-1 strain TC974#666 = assay: Tetravalent RT-qPCR assay Protocol A, serotype 1; type: cell-based; settings: Dengue virus, DENV1, 72 h; RT-qPCR serotype 1 TC974#666, Vero cells, day 3
Method: as §1, §2, §3, §4, §5

[3] = system: DENV-4 strain EDEN (SG/06K2270DK1/2005); assay: Tetravalent RT-qPCR assay Protocol A, serotype 4 EDEN; type: cell-based; settings: Dengue virus, DENV4, 72 h; RT-qPCR serotype 4 EDEN, Vero cells, day 3
Method: as §1, §2, §3, §4, §5

in vitro [4] = type: cell-based; settings: African green monkey, CC50
Method: as §6

[5] = Dengue virus, DENV2, Vero, 72 h

| Compound | EC50 (DENV-3 strain H87) [nM] | CC50 at 3 days (in vitro [1]) [nM] | EC50 [2] [nM] | CC50 (Vero cells) [µM] | EC50 (DENV-4 strain H241) [nM] | EC50 (DENV-2 strain 16681) [nM] | EC50 (DENV-1 strain TC974#666) [nM] | EC50 [3] [nM] | CC50 (in vitro [4]) [µM] | melting point [°C] | EC50 [2, 5] [nM] |
| --- | --- | --- | --- | --- | --- | --- | --- | --- | --- | --- | --- |
| COc1cc(NC(C(=O)c2c[nH]c3c(C)c(Cl)ccc23)c2ccc(Cl)cc2OCCO)cc(S(C)(=O)=O)c1 (single isomer, unassigned) [Compound 5B, 2-(4-chloro-2-(2-hydroxyethoxy)phenyl)-1-(6-chloro-7-methyl-1H-indol-3-yl)-2-((3-methoxy-5-(methylsulfonyl)phenyl)amino)ethanone] | 12 | > 2500 | 0.066 | 3.4 | 74 | 0.065 | 1.6 | 1.1 | – | – | – |
| COc1cc(NC(C(=O)c2c[nH]c3cc(F)c(F)cc23)c2ccc(Cl)cc2OCCO)cc(S(C)(=O)=O)c1 (single isomer, unassigned) [Compound 7A, 2-(4-chloro-2-(2-hydroxyethoxy)phenyl)-1-(5,6-difluoro-1H-indol-3-yl)-2-((3-methoxy-5-(methylsulfonyl)phenyl)amino)ethanone] | 11 | 2900 | 0.22 | 2.7 | 64 | 0.21 | 0.97 | 0.64 | – | – | – |
| COc1cc(NC(C(=O)c2c[nH]c3cc(Cl)ccc23)c2ccc(Cl)cc2OCCO)cc(S(C)(=O)=O)c1 (single isomer, unassigned) [Compound 2A, 1-(6-chloro-1H-indol-3-yl)-2-(4-chloro-2-(2-hydroxyethoxy)phenyl)-2-((3-methoxy-5-(methylsulfonyl)phenyl)amino)ethanone] | 18 | > 2500 | 0.11 | 3.4 | 74 | 0.14 | 1.6 | 1.3 | – | – | – |
| COc1cc(NC(C(=O)c2c[nH]c3cc(OC)c(C)cc23)c2ccc(Cl)cc2OCCO)cc(S(C)(=O)=O)c1 (single isomer, unassigned) [Compound 6A, 2-(4-chloro-2-(2-hydroxyethoxy)phenyl)-2-((3-methoxy-5-(methylsulfonyl)phenyl)amino)-1-(6-methoxy-5-methyl-1H-indol-3-yl)ethanone] | 17 | 4900 | 0.13 | – | 53 | 0.21 | 1.6 | 1 | 3.8 | – | – |
| COc1cc(NC(C(=O)c2c[nH]c3c(C)c(F)ccc23)c2ccc(Cl)cc2OCCO)cc(S(C)(=O)=O)c1 (single isomer, unassigned) [Compound 4A, 2-(4-chloro-2-(2-hydroxyethoxy)phenyl)-1-(6-fluoro-7-methyl-1H-indol-3-yl)-2-((3-methoxy-5-(methylsulfonyl)phenyl)amino)ethanone] | 18 | > 2500 | 0.13 | – | 78 | 0.16 | 1.7 | 1.4 | 3 | – | – |
| COc1cc(NC(C(=O)c2c[nH]c3ccc(C(F)(F)F)cc23)c2ccc(Cl)cc2OCCO)cc(S(C)(=O)=O)c1 (racemic) [Compound 9, 2-(4-chloro-2-(2-hydroxyethoxy)phenyl)-2-((3-methoxy-5-(methylsulfonyl)phenyl)amino)-1-(5-(trifluoromethyl)-1H-indol-3-yl)ethanone] | – | – | – | – | – | – | – | – | > 2.5 | 228 | 0.1 |
| COc1cc(NC(C(=O)c2c[nH]c3cc(OC)ccc23)c2ccc(Cl)cc2OCCO)cc(S(C)(=O)=O)c1 (single isomer, unassigned) [Compound 3A, 2-(4-chloro-2-(2-hydroxyethoxy)phenyl)-1-(6-methoxy-1H-indol-3-yl)-2-((3-methoxy-5-(methylsulfonyl)phenyl)amino)ethanone] | 42 | 5800 | 0.32 | 5.2 | 110 | 0.4 | 4.2 | 3.1 | – | – | – |
| COc1cc(NC(C(=O)c2c[nH]c3c(C)c(Cl)ccc23)c2ccc(Cl)cc2OCCO)cc(S(C)(=O)=O)c1 (racemic) [Compound 5, 2-(4-chloro-2-(2-hydroxyethoxy)phenyl)-1-(6-chloro-7-methyl-1H-indol-3-yl)-2-((3-methoxy-5-(methylsulfonyl)phenyl)amino)ethanone] | – | – | – | – | – | – | – | – | 4.3 | 206 | 0.1 |
| COc1cc(NC(C(=O)c2c[nH]c3c(C)c(F)ccc23)c2ccc(Cl)cc2OCCO)cc(S(C)(=O)=O)c1 (racemic) [Compound 4, 2-(4-chloro-2-(2-hydroxyethoxy)phenyl)-1-(6-fluoro-7-methyl-1H-indol-3-yl)-2-((3-methoxy-5-(methylsulfonyl)phenyl)amino)ethanone] | – | – | – | – | – | – | – | – | 3.7 | 173 | 0.42 |
